Results reported in ChEMBL document CHEMBL1201862, “PubChem BioAssay data set” (2004).
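Cultured in 96-well plates, cells were exposed to test compound for 48 hours across five concentrations. GI50 is the concentration that inhibits growth by half.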 The source made the active and inactive calls. Cut-off read from the data, not from the text of the source: active = GI50 up to about 1.1 µM and inactive = higher.

What was measured:
Assay in all cases: NCI-60 cell line screen, 48 h
786-0 = test system: 786-0
A498 = test system: A498
A549 = test system: A549
BT-549 = test system: BT-549
CAKI-1 = test system: CAKI-1
CCRF-CEM = test system: CCRF-CEM
COLO 205 = test system: COLO 205
DU-145 = test system: DU-145
EKVX = test system: EKVX
HCC 2998 = test system: HCC 2998
HCT-116 = test system: HCT-116
HOP-62 = test system: HOP-62
IGROV-1 = test system: IGROV-1
K562 = test system: K562
M14 = test system: M14
MCF7 = test system: MCF7
MDA-MB-231 = test system: MDA-MB-231
MDA-MB-435 = test system: MDA-MB-435
MDA-N = test system: MDA-N
MOLT-4 = test system: MOLT-4
Malme-3M = test system: Malme-3M
NCI-H23 = test system: NCI-H23
NCI-H522 = test system: NCI-H522
OVCAR-3 = test system: OVCAR-3
OVCAR-5 = test system: OVCAR-5
PC-3 = test system: PC-3
RPMI-8226 = test system: RPMI-8226
RXF 393 = test system: RXF 393
SF-295 = test system: SF-295
SF-539 = test system: SF-539
SK-MEL-2 = test system: SK-MEL-2
SK-MEL-5 = test system: SK-MEL-5
SK-OV-3 = test system: SK-OV-3
SN12C = test system: SN12C
SR = test system: SR
T47D = test system: T47D
TK-10 = test system: TK-10
U-251 = test system: U-251
UACC-257 = test system: UACC-257
UACC-62 = test system: UACC-62
UO-31 = test system: UO-31
ACHN = test system: ACHN
HCT-15 = test system: HCT-15
HL-60 = test system: HL-60
HOP-92 = test system: HOP-92
HT-29 = test system: HT-29
Hs-578T = test system: Hs-578T
LOX IMVI = test system: LOX IMVI
NCI-H460 = test system: NCI-H460
NCI/ADR-RES = test system: NCI/ADR-RES
OVCAR-4 = test system: OVCAR-4
OVCAR-8 = test system: OVCAR-8
SF-268 = test system: SF-268
SK-MEL-28 = test system: SK-MEL-28
SNB-19 = test system: SNB-19
SNB-75 = test system: SNB-75
SW-620 = test system: SW-620

With COc1c(-c2ccccc2)oc2c(CP(=O)(OC)OC)cccc2c1=O the GI50 (786-0) was > 100 µM (inactive), the GI50 (A498) was > 100 µM (inactive) and the GI50 (A549) was > 100 µM (inactive). The GI50 (BT-549) was 41.1 µM (inactive), the GI50 (CAKI-1) was 2.12 µM (inactive) and the GI50 (CCRF-CEM) was 94.4 µM (inactive). The GI50 (COLO 205) was > 100 µM (inactive), the GI50 (DU-145) was > 100 µM (inactive) and the GI50 (EKVX) was > 100 µM (inactive). For the same compound, the GI50 (HCC 2998) was > 100 µM (inactive), the GI50 (HCT-116) was > 100 µM (inactive) and the GI50 (HOP-62) was > 100 µM (inactive). For the same compound, the GI50 (IGROV-1) was > 100 µM (inactive), the GI50 (K562) was > 100 µM (inactive) and the GI50 (M14) was > 100 µM (inactive). For the same compound, the GI50 (MCF7) was > 100 µM (inactive), the GI50 (MDA-MB-231) was > 100 µM (inactive) and the GI50 (MDA-MB-435) was > 100 µM (inactive). For the same compound, the GI50 (MDA-N) was > 100 µM (inactive), the GI50 (MOLT-4) was > 100 µM (inactive) and the GI50 (Malme-3M) was > 100 µM (inactive). The GI50 (NCI-H23) was 68.2 µM (inactive), the GI50 (NCI-H522) was > 100 µM (inactive) and the GI50 (OVCAR-3) was > 100 µM (inactive). For the same compound, the GI50 (OVCAR-5) was > 100 µM (inactive), the GI50 (PC-3) was > 100 µM (inactive) and the GI50 (RPMI-8226) was 14.6 µM (inactive). The GI50 (RXF 393) was > 100 µM (inactive), the GI50 (SF-295) was > 100 µM (inactive) and the GI50 (SF-539) was > 100 µM (inactive). For the same compound, the GI50 (SK-MEL-2) was > 100 µM (inactive), the GI50 (SK-MEL-5) was > 100 µM (inactive) and the GI50 (SK-OV-3) was > 100 µM (inactive). The GI50 (SN12C) was > 100 µM (inactive), the GI50 (SR) was > 100 µM (inactive) and the GI50 (T47D) was > 100 µM (inactive). The GI50 (TK-10) was > 100 µM (inactive), the GI50 (U-251) was > 100 µM (inactive) and the GI50 (UACC-257) was > 100 µM (inactive). The GI50 (UACC-62) was > 100 µM (inactive) and the GI50 (UO-31) was 11.7 µM (inactive).
In the case of OC(CC(O)(C(F)(F)F)C(F)(F)F)c1ccc(C(O)CC(O)(C(F)(F)F)C(F)(F)F)cc1 (stereo not drawn), the GI50 (786-0) is reported as 20.4 µM (inactive), the GI50 (A498) is reported as 12.6 µM (inactive) and the GI50 (A549) is reported as 14.4 µM (inactive). For the same compound, the GI50 (ACHN) was 14.4 µM (inactive), the GI50 (CAKI-1) was 12.7 µM (inactive) and the GI50 (CCRF-CEM) was 16.8 µM (inactive). The GI50 (DU-145) was 15 µM (inactive), the GI50 (EKVX) was 14.7 µM (inactive) and the GI50 (HCC 2998) was 17.2 µM (inactive). For the same compound, the GI50 (HCT-116) was 11.8 µM (inactive), the GI50 (HCT-15) was 20.1 µM and the GI50 (HL-60) was 17.1 µM (inactive). The GI50 (HOP-62) was 17 µM (inactive), the GI50 (HOP-92) was 13 µM (inactive) and the GI50 (HT-29) was 12.3 µM (inactive). The GI50 (Hs-578T) was 22 µM (inactive), the GI50 (IGROV-1) was 10.9 µM (inactive) and the GI50 (K562) was 15.9 µM (inactive). For the same compound, the GI50 (LOX IMVI) was 16.7 µM (inactive), the GI50 (M14) was 15.9 µM (inactive) and the GI50 (MDA-MB-231) was 14.3 µM (inactive). For the same compound, the GI50 (MDA-MB-435) was 18.2 µM (inactive), the GI50 (MDA-N) was 19.5 µM (inactive) and the GI50 (MOLT-4) was 16.3 µM (inactive). The GI50 (Malme-3M) was 14.2 µM (inactive), the GI50 (NCI-H23) was 12.9 µM (inactive) and the GI50 (NCI-H460) was 14.7 µM (inactive). The GI50 (NCI-H522) was 18.3 µM (inactive), the GI50 (NCI/ADR-RES) was 14.6 µM (inactive) and the GI50 (OVCAR-3) was 6.38 µM (inactive). For the same compound, the GI50 (OVCAR-4) was 15.7 µM (inactive), the GI50 (OVCAR-5) was 17.1 µM (inactive) and the GI50 (OVCAR-8) was 15.9 µM (inactive). For the same compound, the GI50 (PC-3) was 18.2 µM (inactive), the GI50 (RPMI-8226) was 15.6 µM (inactive) and the GI50 (RXF 393) was 15 µM (inactive). For the same compound, the GI50 (SF-268) was 14.9 µM (inactive), the GI50 (SF-295) was 18.2 µM (inactive) and the GI50 (SF-539) was 15.7 µM (inactive). For the same compound, the GI50 (SK-MEL-28) was 16 µM (inactive), the GI50 (SK-MEL-2) was 22.3 µM (inactive) and the GI50 (SK-MEL-5) was 13.9 µM (inactive). For the same compound, the GI50 (SK-OV-3) was 17 µM (inactive), the GI50 (SNB-19) was 17.1 µM (inactive) and the GI50 (SNB-75) was 17.5 µM (inactive). For the same compound, the GI50 (SR) was 17.1 µM (inactive), the GI50 (SW-620) was 19.2 µM (inactive) and the GI50 (T47D) was 13.3 µM (inactive). The GI50 (U-251) was 16.4 µM (inactive), the GI50 (UACC-257) was 18.1 µM (inactive) and the GI50 (UACC-62) was 12.2 µM (inactive). For the same compound, the GI50 (UO-31) was 10.8 µM (inactive).
